Source: patent publication US20260198493A1, “HYDRAZIDE COMPOUND AND AGRICULTURAL/HORTICULTURAL FUNGICIDE” (Nippon Soda Co., Ltd., priority 2022, published 2026)

What was measured:
Botrytis cinerea [1] = type: cell-based; conditions: 120 h, 25 ppm by volume, Vogel medium, 20° C., five days, dark, read-out: growth inhibition ratio
Fusarium graminearum = assay: microbe, parasite or virus in culture; type: cell-based; conditions: 96 h, read-out: growth inhibition ratio
Colletotrichum acutatum = assay: Fungicidal effect test against fungi causing apple anthracnose; conditions: 96 h, read-out: growth inhibition ratio
Glomerella cingulata = assay: Fungicidal effect test against fungi causing grape ripe rot disease; conditions: Colletotrichum gloeosporioides, 72 h, read-out: growth inhibition ratio
Botrytis cinerea [2] = assay: Control test of cucumber gray mold (sprayed young cucumber seedlings); type: in vivo; conditions: 96 h, four days after inoculation; for pest or weed control at 25 ppm: 25 ppm by mass spray; for pest or weed control at 125 ppm: 125 ppm by mass spray
Method: Then, the drug liquid was sprayed onto young cucumber seedlings cultivated in a nursery pot (variety “Jihai”-based, cotyledon stage), and then air-dried. […] They were left still in a moist room at 20° C. Four days after inoculation, leaves of the young cucumber seedlings were visually observed, and the control value was calculated from the lesion area ratio in accordance with the following equation. [formula]

Venturia inaequalis = assay: Control test of apple scab disease (sprayed young apple seedlings); type: in vivo; conditions: 125 ppm by mass spray, 12 to 14 days after inoculation
[3] = system: Erysiphe graminis f.sp.tritici; assay: Control test of wheat powdery mildew disease (sprayed young wheat seedlings); type: in vivo; conditions: Blumeria graminis, 144 h, 125 ppm by mass spray, six days after inoculation

Cc1ccc(CNNC(=O)c2cc(C)nnc2Oc2cccc(C3CC3)c2F)c(C)c1 [b-1]
≥ 75%: inhibition of growth at 25 ppm (Botrytis cinerea [1]) | inhibition of growth at 25 ppm (Fusarium graminearum) | inhibition of growth at 25 ppm (Colletotrichum acutatum) | inhibition of growth at 25 ppm (Glomerella cingulata)

Cc1cc(C(=O)NNCc2ccc(Cl)cc2Cl)c(Oc2cccc(C3CC3)c2F)nn1 [b-7]
≥ 75%: inhibition of growth at 25 ppm (Botrytis cinerea [1]) | inhibition of growth at 25 ppm (Fusarium graminearum) | inhibition of growth at 25 ppm (Colletotrichum acutatum) | inhibition of growth at 25 ppm (Glomerella cingulata)

Cc1ccc(CNNC(=O)c2cc(C)ncc2Oc2cccc(C3CC3)c2F)c(C)c1 [b-8]
≥ 75%: inhibition of growth at 25 ppm (Botrytis cinerea [1]) | inhibition of growth at 25 ppm (Fusarium graminearum) | inhibition of growth at 25 ppm (Colletotrichum acutatum) | inhibition of growth at 25 ppm (Glomerella cingulata)

CCc1cc(C(=O)NN(Cc2ccc(C)cc2C)C(=O)OC)c(Oc2cccc(C3CC3)c2F)nn1 [b-27]
≥ 75%: inhibition of growth at 25 ppm (Botrytis cinerea [1]) | inhibition of growth at 25 ppm (Fusarium graminearum) | pest or weed control at 25 ppm (Botrytis cinerea [2]) | pest or weed control at 125 ppm (Botrytis cinerea [2]) | inhibition of growth at 25 ppm (Colletotrichum acutatum) | inhibition of growth at 25 ppm (Glomerella cingulata)

COC(=O)N(Cc1ccc(C)cc1C)NC(=O)c1cc(C)ncc1Oc1cccc(C2CC2)c1 [b-32]
≥ 75%: inhibition of growth at 25 ppm (Botrytis cinerea [1]) | inhibition of growth at 25 ppm (Fusarium graminearum) | pest or weed control at 25 ppm (Botrytis cinerea [2]) | inhibition of growth at 25 ppm (Colletotrichum acutatum) | inhibition of growth at 25 ppm (Glomerella cingulata)

COC(=O)N(Cc1ccc(OC)cc1OC)NC(=O)c1cc(C)ncc1Oc1cccc(Br)c1 [b-87]
≥ 75%: inhibition of growth at 25 ppm (Botrytis cinerea [1]) | inhibition of growth at 25 ppm (Fusarium graminearum) | inhibition of growth at 25 ppm (Colletotrichum acutatum) | inhibition of growth at 25 ppm (Glomerella cingulata)

COC(=O)N(Cc1ccc(C)cc1C)NC(=O)c1cc(C2CC2)ncc1Oc1cccc(C2CC2)c1F [b-116]
≥ 75%: inhibition of growth at 25 ppm (Botrytis cinerea [1]) | inhibition of growth at 25 ppm (Fusarium graminearum) | pest or weed control at 25 ppm (Botrytis cinerea [2]) | inhibition of growth at 25 ppm (Colletotrichum acutatum) | inhibition of growth at 25 ppm (Glomerella cingulata)

COC(=O)N(Cc1ccc(C)cc1C)NC(=O)c1cc(C#N)ncc1Oc1cccc(C2CC2)c1F [b-119]
≥ 75%: inhibition of growth at 25 ppm (Botrytis cinerea [1]) | inhibition of growth at 25 ppm (Fusarium graminearum) | pest or weed control at 25 ppm (Botrytis cinerea [2]) | inhibition of growth at 25 ppm (Colletotrichum acutatum) | inhibition of growth at 25 ppm (Glomerella cingulata)

COC(=O)N(Cc1ccc(N(C)C)cc1C)NC(=O)c1cc(C)ncc1Oc1cccc(C2CC2)c1F [b-126]
≥ 75%: inhibition of growth at 25 ppm (Botrytis cinerea [1]) | inhibition of growth at 25 ppm (Fusarium graminearum) | pest or weed control at 125 ppm (Botrytis cinerea [2]) | inhibition of growth at 25 ppm (Colletotrichum acutatum) | inhibition of growth at 25 ppm (Glomerella cingulata)

COC(=O)N(Cc1ccc(C#N)cc1C)NC(=O)c1cc(C)ncc1Oc1cccc(C2CC2)c1F [b-128]
≥ 75%: inhibition of growth at 25 ppm (Botrytis cinerea [1]) | inhibition of growth at 25 ppm (Fusarium graminearum) | inhibition of growth at 25 ppm (Colletotrichum acutatum) | inhibition of growth at 25 ppm (Glomerella cingulata)

COC(=O)N(Cc1ccc(C)cc1C)NC(=O)c1cc(C)nnc1Oc1cccc([N+](=O)[O-])c1 [b-135]
≥ 75%: inhibition of growth at 25 ppm (Botrytis cinerea [1]) | inhibition of growth at 25 ppm (Fusarium graminearum) | pest or weed control at 25 ppm (Botrytis cinerea [2]) | inhibition of growth at 25 ppm (Colletotrichum acutatum) | inhibition of growth at 25 ppm (Glomerella cingulata)

COC(=O)N(Cc1ccc(C)cc1C)NC(=O)c1cc(C)nnc1Oc1ccccc1 [b-143]
≥ 75%: inhibition of growth at 25 ppm (Botrytis cinerea [1]) | inhibition of growth at 25 ppm (Fusarium graminearum) | inhibition of growth at 25 ppm (Colletotrichum acutatum) | inhibition of growth at 25 ppm (Glomerella cingulata)

COC(=O)N(Cc1ccc(OC)cc1C)NC(=O)c1cc(C#N)ncc1Oc1cccc(C2CC2)c1F [b-167]
≥ 75%: inhibition of growth at 25 ppm (Botrytis cinerea [1]) | inhibition of growth at 25 ppm (Fusarium graminearum) | inhibition of growth at 25 ppm (Colletotrichum acutatum) | inhibition of growth at 25 ppm (Glomerella cingulata)

COC(=O)N(Cc1ccc(C)cc1C)NC(=O)c1c(Oc2cccc(Cl)c2F)nnc2c1CCC2 [b-175]
≥ 75%: inhibition of growth at 25 ppm (Botrytis cinerea [1]) | inhibition of growth at 25 ppm (Fusarium graminearum) | inhibition of growth at 25 ppm (Colletotrichum acutatum) | inhibition of growth at 25 ppm (Glomerella cingulata)

COC(=O)N(Cc1ccc(C)cc1C)NC(=O)c1ccnnc1Oc1cccc(C2CC2)c1F [b-189]
≥ 75%: inhibition of growth at 25 ppm (Botrytis cinerea [1]) | pest or weed control at 25 ppm (Botrytis cinerea [2]) | pest or weed control at 125 ppm (Botrytis cinerea [2]) | pest or weed control at 125 ppm (Venturia inaequalis) | pest or weed control at 125 ppm [3] | inhibition of growth at 25 ppm (Colletotrichum acutatum) | inhibition of growth at 25 ppm (Glomerella cingulata)

COC(=O)N(Cc1ccc(C)cc1C)NC(=O)c1ccnnc1Oc1cccc(Cl)c1F [b-190]
≥ 75%: inhibition of growth at 25 ppm (Botrytis cinerea [1]) | pest or weed control at 25 ppm (Botrytis cinerea [2]) | pest or weed control at 125 ppm (Botrytis cinerea [2]) | pest or weed control at 125 ppm (Venturia inaequalis) | pest or weed control at 125 ppm [3] | inhibition of growth at 25 ppm (Colletotrichum acutatum) | inhibition of growth at 25 ppm (Glomerella cingulata)

COC(=O)N(Cc1ccc(OC)cc1C)NC(=O)c1c(C)cnnc1Oc1cccc(C2CC2)c1F [b-192]
≥ 75%: inhibition of growth at 25 ppm (Botrytis cinerea [1]) | pest or weed control at 25 ppm (Botrytis cinerea [2]) | pest or weed control at 125 ppm (Botrytis cinerea [2]) | pest or weed control at 125 ppm (Venturia inaequalis) | pest or weed control at 125 ppm [3] | inhibition of growth at 25 ppm (Colletotrichum acutatum) | inhibition of growth at 25 ppm (Glomerella cingulata)

COC(=O)N(Cc1ccc(C)cc1C)NC(=O)c1cc(SC)ncc1Oc1cccc(C2CC2)c1F [b-194]
≥ 75%: inhibition of growth at 25 ppm (Botrytis cinerea [1]) | inhibition of growth at 25 ppm (Fusarium graminearum) | inhibition of growth at 25 ppm (Colletotrichum acutatum) | inhibition of growth at 25 ppm (Glomerella cingulata)

COC(=O)N(Cc1ccc(OC)cc1C)NC(=O)c1c(F)cncc1Oc1cccc(C2CC2)c1F [b-201]
≥ 75%: inhibition of growth at 25 ppm (Botrytis cinerea [1]) | pest or weed control at 25 ppm (Botrytis cinerea [2]) | pest or weed control at 125 ppm (Botrytis cinerea [2]) | pest or weed control at 125 ppm (Venturia inaequalis) | pest or weed control at 125 ppm [3] | inhibition of growth at 25 ppm (Colletotrichum acutatum) | inhibition of growth at 25 ppm (Glomerella cingulata)

COC(=O)N(Cc1ccc(C)cc1C)NC(=O)c1c(Cl)cncc1Oc1cccc(C2CC2)c1F [b-205]
≥ 75%: inhibition of growth at 25 ppm (Botrytis cinerea [1]) | pest or weed control at 125 ppm (Botrytis cinerea [2]) | pest or weed control at 125 ppm (Venturia inaequalis) | pest or weed control at 125 ppm [3] | inhibition of growth at 25 ppm (Colletotrichum acutatum) | inhibition of growth at 25 ppm (Glomerella cingulata)

COC(=O)N(Cc1ccc(OC)cc1C)NC(=O)c1c(Cl)cncc1Oc1cccc(C2CC2)c1F [b-206]
≥ 75%: inhibition of growth at 25 ppm (Botrytis cinerea [1]) | pest or weed control at 25 ppm (Botrytis cinerea [2]) | pest or weed control at 125 ppm (Botrytis cinerea [2]) | pest or weed control at 125 ppm (Venturia inaequalis) | pest or weed control at 125 ppm [3] | inhibition of growth at 25 ppm (Colletotrichum acutatum) | inhibition of growth at 25 ppm (Glomerella cingulata)

COC(=O)N(Cc1ccc(C)cc1C)NC(=O)c1c(Oc2cccc(C3CC3)c2F)cnc2c1OC(C)(C)CC2 [b-209, Methyl 2-(7-(3-cyclopropyl-2-fluorophenoxy)-2,2-dimethyl-3,4-dihydro-2H-pyrano[3,2-b]pyridine-8-carbonyl)-1-(2,4-dimethylbenzyl)hydrazine-1-carboxylate]
≥ 75%: inhibition of growth at 25 ppm (Botrytis cinerea [1]) | inhibition of growth at 25 ppm (Fusarium graminearum) | pest or weed control at 25 ppm (Botrytis cinerea [2]) | pest or weed control at 125 ppm (Botrytis cinerea [2]) | inhibition of growth at 25 ppm (Colletotrichum acutatum) | inhibition of growth at 25 ppm (Glomerella cingulata)

COC(=O)N(Cc1ccc(C)cc1C)NC(=O)c1cc(C)nnc1Oc1cccc(Cl)n1 [b-215]
≥ 75%: inhibition of growth at 25 ppm (Botrytis cinerea [1]) | inhibition of growth at 25 ppm (Fusarium graminearum) | inhibition of growth at 25 ppm (Colletotrichum acutatum) | inhibition of growth at 25 ppm (Glomerella cingulata)

C=C(OCC)c1cncc(Oc2cccc(C3CC3)c2F)c1C(=O)NN(Cc1ccc(C)cc1C)C(=O)OC [b-217]
≥ 75%: inhibition of growth at 25 ppm (Botrytis cinerea [1]) | inhibition of growth at 25 ppm (Fusarium graminearum) | inhibition of growth at 25 ppm (Colletotrichum acutatum) | inhibition of growth at 25 ppm (Glomerella cingulata)

COC(=O)N(Cc1ccc(C)cc1C)/N=C(\OC)c1cc(C)nnc1Oc1cccc(Cl)c1F [b-220, Methyl (Z)-2-((3-(3-chloro-2-fluorophenoxy)-6-methylpyridazin-4-yl)(methoxy)methylene)-1-(2,4-dimethylbenzyl)hydrazine-1-carboxylate]
≥ 75%: inhibition of growth at 25 ppm (Botrytis cinerea [1]) | pest or weed control at 125 ppm (Botrytis cinerea [2]) | pest or weed control at 125 ppm (Venturia inaequalis) | pest or weed control at 125 ppm [3] | inhibition of growth at 25 ppm (Colletotrichum acutatum) | inhibition of growth at 25 ppm (Glomerella cingulata)
